Measured values taken from patent publication US20210052516A1, “METHOD FOR INCREASING AKKERMANSIA IN INTESTINAL BACTERIAL FLORA BY INGESTING ASTAXANTHIN” (Fuji Chemical Industries Co., Ltd., priority 2018, published 2021).

How the values were obtained:
[1] = test system: Akkermansia muciniphila; settings: articles reported so far; mice; cited from earlier work
[2] = test system: Lactobacillus; experiment: Intestinal bacterial flora in cecum contents, 16S rRNA sequencing: Lactobacillus; format: in vivo, Wistar rats; settings: diet containing 0.02% astaxanthin for four weeks, control group 10.9%
Description: (§1) Six-week-old Wistar rats (rodents) were used to compare the intestinal bacterial flora of a group fed with a diet containing 0.02% astaxanthin (an Asx group) and the intestinal bacterial flora of a group fed with a normal diet (a control group).
(§2) Saline or corticotropin-releasing hormone (CRH) was intravenously administered to the rats after feeding each group with each corresponding diet for four weeks.
(§3) Three hours after administration, the rats were sacrificed and the intestinal bacterial floras in the cecum contents of each group were analyzed and compared. The result is shown in the graph of FIG. 1.
(§4) The analysis method included extracting DNA in the cecum contents, amplifying the V3-V4 region in a 16SrRNA gene, and performing sequencing.

[3] = Astaxanthin concentration in human blood (HPLC); format: in vivo; settings: 1 to 60 mg of astaxanthin per day
Method: Next, an astaxanthin concentration in human blood was investigated.
In this context, a blood astaxanthin concentration means an astaxanthin concentration in blood serum or blood plasma.
A blood astaxanthin concentration was measured by HPLC.
Five hundred microliters of 50 μg/ml butylhydroxytoluene in ethanol, 100 μl of 100 ng/ml internal standard (ethyl 8′-apo-beta-caroten-8′-oate, Carote Nature, 1010) in acetone, and 500 μl of distilled water were added to 100 μl of the obtained blood serum or blood plasma sample, and the mixture was stirred vigorously for 15 seconds by a vortex mixer.
Furthermore, 5 ml of hexane was added to the blood serum or blood plasma, and subsequently the mixture was stirred vigorously for 15 seconds by the vortex mixer three times and centrifuged at 3500 rpm for 10 minutes.
Four milliliters of the supernatant after centrifugation was collected and filtrated through a membrane filter with a mesh size of 0.45 μm. […]
In parallel, a standard solution was prepared by adding 1 ml of 10 μg/ml internal standard (ethyl 8′-apo-beta-caroten-8′-oate) in acetone to 100 ml of 100 ng/ml astaxanthin (astaxanthin, ALEXIS BIOCHEMICALS, 460-031-M250) in acetone, and was also subjected to reverse-phase HPLC. The blood astaxanthin concentration was calculated based on the peak area ratio of the above-mentioned two solutions obtained by HPLC. […]

[4] = test system: intestinal peristaltic movement induced by CRH; experiment: Intestinal peristaltic movement induced by CRH administration; format: in vivo, Wistar rats; settings: diet containing 0.02% astaxanthin for four weeks; CRH intravenously
Description: as §1, §2
Furthermore, enhancement of intestinal peristaltic movement induced by administration of CRH was reduced in the Asx group.

[5] = Change in astaxanthin concentration in human blood on long-term ingestion; format: in vivo; settings: 12 mg/day astaxanthin in free form (two capsules of Haematococcus alga extract) for 42 days
Method: Next, a test on humans was performed to monitor how an astaxanthin concentration in blood (in blood plasma) changed when astaxanthin was ingested for a long period. A study was performed as follows:
Ten healthy Japanese males and females aged 20 years or older and younger than 50 years
The subjects ingested two capsules per day (equivalent to 12 mg/day astaxanthin in free form) together with water 30 minutes after breakfast for 42 days, with one capsule containing 60 mg of Haematococcus alga extract (equivalent to 6 mg of astaxanthin in free form) and 270 mg of edible oil and fat.
Blood collection was performed 1, 6, 13, 20, 27, 34, and 42 days after the first ingestion of the capsules to obtain blood plasma. The blood astaxanthin concentration was measured by the above-mentioned analytical method (HPLC).

[6] = in vivo; cited from earlier work
[7] = test system: Clostridia; experiment: Intestinal bacterial flora in cecum contents, 16S rRNA sequencing: Clostridia; format: in vivo, Wistar rats; settings: diet containing 0.02% astaxanthin for four weeks, control group 58.2%
Description: as §1, §2, §3, §4

[8] = test system: bacteria of the genus Akkermansia (Akkermansia muciniphila); experiment: Intestinal bacterial flora in cecum contents, 16S rRNA sequencing: Akkermansia; format: in vivo; settings: diet containing 0.02% astaxanthin for four weeks vs normal diet, 6-week-old Wistar rats
Description: Thus, as detailed below, 6-week-old Wistar rats (rodents) were used to compare the intestinal bacterial floras of a group fed with an astaxanthin-containing diet for four weeks and a group fed with a normal diet for four weeks. […] Six-week-old Wistar rats (rodents) were used to compare the intestinal bacterial flora of a group fed with a diet containing 0.02% astaxanthin (an Asx group) and the intestinal bacterial flora of a group fed with a normal diet (a control group). Saline or corticotropin-releasing hormone (CRH) was intravenously administered to the rats after feeding each group with each corresponding diet for four weeks. Three hours after administration, the rats were sacrificed and the intestinal bacterial floras in the cecum contents of each group were analyzed and compared. […] The analysis method included extracting DNA in the cecum contents, amplifying the V3-V4 region in a 16SrRNA gene, and performing sequencing.

[9] = Body weight of a rodent; format: in vivo; settings: diet containing 0.02% astaxanthin vs normal diet; 24-day-old Wistar rats; PND72,76
Description: Twenty four-day-old Wistar rats (rodents) were used to compare the body weights of a group fed with a diet containing 0.02% astaxanthin (an Asx group) and the body weights of a group fed with a normal diet (a control group).

## COc1cc(CNC(=O)CCCC/C=C/C(C)C)ccc1O [Capsaicin]
[1]
  effect on Akkermansia muciniphila population: effect of increasing Akkermansia muciniphila

## CC1=C(/C=C/C(C)=C/C=C/C(C)=C/C=C/C=C(C)/C=C/C=C(C)/C=C/C2=C(C)C(=O)C(O)CC2(C)C)C(C)(C)CC(O)C1=O (stereo not drawn) [astaxanthin, 3,3′-dihydroxy-β,β-carotene-4,4′-dione]
[2]
  proportion of Lactobacillus in the intestinal bacterial flora of the Asx group: 5.9%
[3]
  blood astaxanthin concentration (serum or plasma), range: no more than 600 ng/ml
[4]
  enhancement of intestinal peristaltic movement induced by administration of CRH: reduced
[5]
  astaxanthin concentration in human blood plasma at plateau: around 200 ng/ml
  time after beginning of ingestion at which blood plasma concentration started to plateau: about 6 days
[6]
  absorption percentage in the intestine: about 5%
[7]
  proportion of Clostridia in the intestinal bacterial flora of the Asx group: 47.6%
[8]
  number of bacteria of the genus Akkermansia in the Asx group relative to the control group: about 11.7 times
[9]
  increase in body weight: clearly less
